One molecule from US8173797B2 (Cornell Research Foundation, Inc., priority 2004, dated 2012) can be followed below.

The series can be described thus: solubility in aprotic NMR solvents. It is filed as physicochemical.

Turning to `CC1OC(OC2C(O)C(C)OC(OC3C(COS(=O)(=O)O)OC(n4cnc5c(=O)[nH]c(N)nc54)C3O)C2O)C(O)C(O)C1O` (stereo not shown) [Compound 2], the solubility entry is reported as “quite insoluble”.
